Reference: US7786137B2, “Bicyclic derivatives as modulators of ion channels” (Vertex Pharmaceuticals Incorporated, priority 2005, dated 2010)

Molecular target: NaV1.3 (Homo sapiens, UniProt Q9NY46)
Assay: VIPR optical membrane potential assay, NaV1.3 inhibition
Assay type: cell-based
Set-up: expressed in transfected cells; host or cells: HEK293
Conditions: activity against NaV 1.3 channel
Method: Antagonist properties of test compounds were assessed as follows. Cells expressing the NaV of interest were placed into microtiter plates. After an incubation period, the cells were stained with fluorescent dyes sensitive to the transmembrane potential. The test compounds were added to the microtiter plate. The cells were stimulated with either a chemical or electrical means to evoke a NaV dependent membrane potential change from unblocked channels, which was detected and measured with trans-membrane potential-sensitive dyes. Antagonists were detected as a decreased membrane potential response to the stimulus.
The following is an example of how NaV1.3 inhibition activity is measured using the optical membrane potential method#2. Other subtypes are performed in an analogous mode in a cell line expressing the NaV of interest.
HEK293 cells stably expressing NaV1.3 are plated into 96-well microtiter plates. After an appropriate incubation period, the cells are stained with the voltage sensitive dyes CC2-DMPE/DiSBAC2(3) as follows.
2× CC2-DMPE=20 μM CC2-DMPE: 10 mM CC2-DMPE is vortexed with an equivalent volume of 10% pluronic, followed by vortexing in required amount of HBSS containing 10 mM HEPES. Each cell plate will require 5 mL of 2× CC2-DMPE. 50 μL of 2× CC2-DMPE is to wells containing washed cells, resulting in a 10 μM final staining concentration. The cells are stained for 30 minutes in the dark at RT.
2× DISBAC2(3) with ABSC1=6 μM DISBAC2(3) and 1 mM ABSC1: The required amount of 10 mM DISBAC2(3) is added to a 50 ml conical tube and mixed with 1 μL 10% pluronic for each mL of solution to be made and vortexed together. Then HBSS/HEPES is added to make up 2× solution. Finally, the ABSC1 is added.
The 2× DiSBAC2(3) solution can be used to solvate compound plates. Note that compound plates are made at 2× drug concentration. Wash stained plate again, leaving residual volume of 50 μL. Add 50 μL/well of the 2× DiSBAC2(3) w/ABSC1. Stain for 30 minutes in the dark at RT.
The instrument comprises a microtiter plate handler, an optical system for exciting the coumarin dye while simultaneously recording the coumarin and oxonol emissions, a waveform generator, a current- or voltage-controlled amplifier, and a device for inserting electrodes in well. Under integrated computer control, this instrument passes user-programmed electrical stimulus protocols to cells within the wells of the microfilter plate.
Insert or use electrodes into each well to be assayed.
Use the current-controlled amplifier to deliver stimulation wave pulses for 3 s. Two seconds of pre-stimulus recording are performed to obtain the un-stimulated intensities. Five seconds of post-stimulation recording are performed to examine the relaxation to the resting state.
Data are analyzed and reported as normalized ratios of background-subtracted emission intensities measured in the 460 nm and 580 nm channels. Background intensities are then subtracted from each assay channel. Background intensities are obtained by measuring the emission intensities during the same time periods from identically treated assay wells in which there are no cells. The response as a function of time is then reported as the ratios obtained using the following formula: […]
The data is further reduced by calculating the initial (Ri) and final (Rf) ratios. These are the average ratio values during part or all of the pre-stimulation period, and during sample points during the stimulation period. The response to the stimulus ? =Rf/Ri is then calculated.
Control responses are obtained by performing assays in the presence of a compound with the desired properties (positive control), such as tetracaine, and in the absence of pharmacological agents (negative control). Responses to the negative (N) and positive (P) controls are calculated as above. The compound antagonist activity A is defined as:
[formula] where R is the ratio response of the test compound.

Sequence of NaV1.3 (Q9NY46 whole entry): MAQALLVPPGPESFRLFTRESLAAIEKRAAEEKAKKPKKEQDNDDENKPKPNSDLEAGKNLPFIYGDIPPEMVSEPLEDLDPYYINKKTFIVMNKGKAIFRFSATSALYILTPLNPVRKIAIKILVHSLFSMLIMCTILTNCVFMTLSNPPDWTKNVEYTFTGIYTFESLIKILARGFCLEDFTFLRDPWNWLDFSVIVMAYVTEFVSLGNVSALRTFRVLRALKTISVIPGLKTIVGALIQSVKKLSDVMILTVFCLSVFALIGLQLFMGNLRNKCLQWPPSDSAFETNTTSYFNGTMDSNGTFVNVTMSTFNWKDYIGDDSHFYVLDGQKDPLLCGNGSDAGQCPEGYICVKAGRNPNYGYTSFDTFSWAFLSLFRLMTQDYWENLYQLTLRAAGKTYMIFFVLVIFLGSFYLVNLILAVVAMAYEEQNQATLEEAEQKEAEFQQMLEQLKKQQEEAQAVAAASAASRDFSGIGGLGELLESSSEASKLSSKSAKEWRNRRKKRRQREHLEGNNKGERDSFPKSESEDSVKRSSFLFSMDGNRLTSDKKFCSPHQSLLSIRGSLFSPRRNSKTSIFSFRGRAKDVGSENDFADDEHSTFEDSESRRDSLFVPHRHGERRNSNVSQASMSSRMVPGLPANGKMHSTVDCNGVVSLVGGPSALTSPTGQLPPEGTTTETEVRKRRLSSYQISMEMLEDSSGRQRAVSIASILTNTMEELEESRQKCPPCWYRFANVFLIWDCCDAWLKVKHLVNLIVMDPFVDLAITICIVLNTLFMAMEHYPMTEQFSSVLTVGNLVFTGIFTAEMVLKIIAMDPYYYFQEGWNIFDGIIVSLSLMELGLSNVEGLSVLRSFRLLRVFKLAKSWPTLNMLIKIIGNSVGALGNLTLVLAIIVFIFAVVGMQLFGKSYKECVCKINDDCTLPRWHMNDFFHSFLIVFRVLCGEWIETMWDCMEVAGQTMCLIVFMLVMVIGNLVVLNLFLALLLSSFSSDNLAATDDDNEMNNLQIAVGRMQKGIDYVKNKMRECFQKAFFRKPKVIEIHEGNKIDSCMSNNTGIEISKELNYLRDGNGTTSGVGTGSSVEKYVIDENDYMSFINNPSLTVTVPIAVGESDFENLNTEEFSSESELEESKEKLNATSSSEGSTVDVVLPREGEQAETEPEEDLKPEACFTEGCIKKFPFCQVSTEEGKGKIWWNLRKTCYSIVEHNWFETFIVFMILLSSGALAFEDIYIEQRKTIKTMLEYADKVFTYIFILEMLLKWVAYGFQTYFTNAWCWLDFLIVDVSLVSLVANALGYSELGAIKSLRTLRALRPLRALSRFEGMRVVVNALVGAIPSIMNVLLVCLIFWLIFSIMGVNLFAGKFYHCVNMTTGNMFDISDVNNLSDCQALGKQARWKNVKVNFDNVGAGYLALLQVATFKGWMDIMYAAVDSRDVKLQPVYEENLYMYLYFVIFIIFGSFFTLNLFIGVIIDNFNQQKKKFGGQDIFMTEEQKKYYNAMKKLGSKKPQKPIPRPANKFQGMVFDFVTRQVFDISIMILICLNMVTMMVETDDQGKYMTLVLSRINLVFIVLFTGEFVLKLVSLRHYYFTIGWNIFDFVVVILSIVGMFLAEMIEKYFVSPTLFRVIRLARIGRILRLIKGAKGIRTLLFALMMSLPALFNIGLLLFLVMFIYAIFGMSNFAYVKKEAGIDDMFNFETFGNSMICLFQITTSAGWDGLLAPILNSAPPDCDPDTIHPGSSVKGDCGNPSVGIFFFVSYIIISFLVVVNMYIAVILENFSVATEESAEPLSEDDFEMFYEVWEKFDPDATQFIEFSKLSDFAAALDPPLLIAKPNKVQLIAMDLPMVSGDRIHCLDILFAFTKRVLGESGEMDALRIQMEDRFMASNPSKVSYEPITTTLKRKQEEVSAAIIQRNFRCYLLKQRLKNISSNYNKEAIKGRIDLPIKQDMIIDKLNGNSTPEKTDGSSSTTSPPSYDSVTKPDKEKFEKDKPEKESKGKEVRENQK

SMILES | IC50
Cc1ccnc(NS(=O)(=O)c2ccc3c(c2)CCN3C(=O)CCCOc2ccc(Cl)cc2Cl)n1 [Compound 208] | > 5000 nM
CC(Oc1ccc(OC(F)(F)F)cc1)C(=O)N1CCc2ccc(S(=O)(=O)Nc3nccs3)cc2C1 (stereo not shown) [Compound 141] | > 5000 nM
O=C(CN1CCCc2cc(Cl)ccc21)N1CCc2cc(S(=O)(=O)Nc3ccncn3)ccc21 [Compound 133] | > 5000 nM
O=C(c1ccc(C(F)(F)F)cc1)N1CCCc2cc(S(=O)(=O)Nc3nccs3)ccc21 [Compound 132] | 2000 to 5000 nM
O=C(CN1CCc2ccccc2C1)N1CCCc2cc(S(=O)(=O)Nc3nccs3)ccc21 [Compound 15] | 2000 to 5000 nM
O=C(COc1ccc(Cl)cc1)N1CCc2ccc(S(=O)(=O)Nc3nccs3)cc2C1 [Compound 23] | > 5000 nM
CC1CCCN(CC(=O)N2CCc3cc(S(=O)(=O)Nc4nccs4)ccc32)C1 (stereo not shown) [Compound 75] | > 5000 nM
COc1ccc(NCC(=O)N2CCc3cc(S(=O)(=O)Nc4nccs4)ccc32)cc1F [Compound 184] | > 5000 nM
Cc1ccc(F)c(C(=O)n2ccc3cc(S(=O)(=O)Nc4nccs4)ccc32)c1 [Compound 195] | 2000 to 5000 nM
O=C(c1cc(F)ccc1F)N1CCc2ccc(S(=O)(=O)Nc3nccs3)cc2C1 [Compound 74] | > 5000 nM
CC(Oc1cccc(Cl)c1)C(=O)N1CCc2ccc(S(=O)(=O)Nc3nccs3)cc2C1 (stereo not shown) [Compound 174] | 2000 to 5000 nM
C[C@@H](C(=O)N1Cc2ccc(S(=O)(=O)Nc3ccncn3)cc2C1)n1ccc2c(F)cccc21 [Compound 203] | > 5000 nM
O=C(COc1ccc(F)c(Cl)c1)N1CCCc2cc(S(=O)(=O)Nc3nccs3)ccc21 [Compound 154] | < 2000 nM
O=C(c1ccc(Cl)c(Cl)c1)N1CCc2cc(S(=O)(=O)Nc3nccs3)ccc21 [Compound 90] | < 2000 nM
CC(Oc1ccccc1)C(=O)N1CCCc2cc(S(=O)(=O)Nc3nccs3)ccc21 (stereo not shown) [Compound 39] | > 5000 nM
O=C(Oc1ccccc1)N1CCc2cc(S(=O)(=O)Nc3nccs3)ccc21 [Compound 163] | 2000 to 5000 nM

Second part, the compound after the results:

IC50 | SMILES
< 2000 nM | O=C(CCCOc1ccc(Cl)c(Cl)c1)N1Cc2ccc(S(=O)(=O)Nc3ncns3)cc2C1 [Compound 32]
< 2000 nM | CC(Oc1cc(Cl)ccc1Cl)C(=O)N1CCc2cc(S(=O)(=O)Nc3nccs3)ccc21 (stereo not shown) [Compound 21]
< 2000 nM | O=C(CN1CCc2ccc(Cl)cc2C1)N1CCc2cc(S(=O)(=O)Nc3nccs3)ccc21 [Compound 44]
< 2000 nM | C[C@@H](C(=O)N1Cc2ccc(S(=O)(=O)Nc3ncns3)cc2C1)n1ccc2ccccc21 [Compound 164]
< 2000 nM | O=C(CN1CCCc2cc(Cl)ccc21)N1CCc2cc(S(=O)(=O)Nc3ncns3)ccc21 [Compound 205]
< 2000 nM | O=C(COc1ccnc2c(C(F)(F)F)cccc12)N1Cc2ccc(S(=O)(=O)Nc3ncns3)cc2C1 [Compound 122]
< 2000 nM | CC(C)(C)c1ccc(OCC(=O)N2CCCc3cc(S(=O)(=O)Nc4nccs4)ccc32)cc1 [Compound 206]
< 2000 nM | O=C(COc1ccc(F)c(Cl)c1)N1Cc2ccc(S(=O)(=O)Nc3nccs3)cc2C1 [Compound 27]
< 2000 nM | O=C(CCn1ccc2cc(Cl)ccc21)N1Cc2ccc(S(=O)(=O)Nc3nccs3)cc2C1 [Compound 177]
< 2000 nM | C[C@H](C(=O)N1Cc2ccc(S(=O)(=O)Nc3ncns3)cc2C1)n1ccc2ccccc21 [Compound 207]
< 2000 nM | CC(Oc1cccc(Cl)c1)C(=O)N1Cc2ccc(S(=O)(=O)Nc3nccs3)cc2C1 (stereo not shown) [Compound 62]
< 2000 nM | O=C(COc1ccc(F)c(Cl)c1)N1CCc2cc(S(=O)(=O)Nc3nccs3)ccc21 [Compound 30]
< 2000 nM | Cc1ccc(C(=O)N2CCc3cc(S(=O)(=O)Nc4ncns4)ccc32)cc1Cl [Compound 179]
< 2000 nM | CC(C)(C)c1ccc(OCC(=O)N2CCCc3cc(S(=O)(=O)Nc4ncns4)ccc32)cc1 [Compound 139]
< 2000 nM | O=C(COc1ccc(F)c(Cl)c1)N1Cc2ccc(S(=O)(=O)Nc3ncns3)cc2C1 [Compound 200]
